From patent US20210369681A1, “Identification of PPM1D mutations as a novel biomarker for NAMPTi sensitivity” (YALE UNIVERSITY, priority 2018, published 2021)
Where two headings read alike, the source gives them in different places.

What was measured:
[1] = test system: parental and PPM1Dtrnc. immortalized human astrocytes; assay type: cell-based
Method: (§1) In vitro cellular viability assessments of immortalized human astrocytes, MCF7, and U2OS cell lines were made using a previously described, high-content, microscopy platform developed by our group. In brief, cells were plated in a 96-well plate at a density of 2000 cells/well, and incubated overnight. Drug treatment or vehicle (0.5% DMSO) control was administered, and cells were incubated for 72-96 hours as indicated. Plates were then washed with PBS and fixed with ice-cold 70% ethanol for 2 hours at 4° C. […] Cells were imaged using a Cytation3 imager (BioTek), and images were stitched and analyzed as described above. Viability assessments were made comparing drug treated to vehicle treated conditions. SU-DIPG and HSJD-DIPG-007 spheroid viability was assessed using CytoTox-Glo (Promega), according to the manufacturer's protocols. Spheroids were treated with FK866 for 120 hours before analysis using this method. IC50 calculations were made using GraphPad Prism, by fitting data to an [inhibitor] vs response−variable slope four parameter nonlinear regression (as depicted in the representative figures). siRNA Transfection and Viability Analysis Individual NAPRT targeting siRNAs were ordered from Dharmacon Inc. (Horizon Discovery), with target sequences listed in Table 1. The panel of siRNAs used for synthetic lethal viability screening was hand-selected and ordered from Dharmacon Inc. and were provided in ON-TARGET plus mixtures, each containing up to four unique siRNAs per gene. 2×10^5 astrocytes were reverse-transfected with different siRNAs (200 nM final concentration), using Lipofectamine RNAiMAX (Invitrogen), according to manufacturer's protocols. For individual siRNAs, cells were incubated for 72 hours, pelleted, and lyzed for immunoblotting. For the siRNA screen, cells were incubated for 24 hours and split to different condition plates, where they were incubated for an additional 24 hours. Cells were then treated with the described doses of FK866, and viability was assessed after 72 hours of drug treatment, using the image-based pipeline described above. Viability measurements were made for each siRNA, and normalized to FK866-untreated conditions.
Given the role of PPM1D in DDR pathways, we performed a small molecule synthetic lethal screen with a panel of inhibitors against key DNA repair and metabolic proteins, using methodology described previously by our group.

PPM1Dtrnc. astrocytes = conditions: for NAMPT inhibitor sensitivity of PPM1D mutant astrocytes: 72 hr treatment, structurally distinct NAMPT inhibitors
Method: PPM1D^trnc. astrocytes were treated with 50 µg/mL cycloheximide or 1 μM MG132 (both Sigma) for the indicated amount of time. Cells were then washed, pelleted, and lyzed for subsequent immunoblotting approaches, as described above. Quantification of immunoblot intensity was calculated using ImageJ software, and consisted of multiple (n=3) blots. Irradiation of cells was performed using an X-RAD KV irradiator (Precision X-ray), and treatment consisted of an unfractionated, 10 Gy dose. PPM1D inhibitor treatment with GSK2830371 (Selleckchem), consisted of 50 nM treatment, 24 hours prior to IR. FK866 (Selleckchem), GPP78 (Tocris Bioscience), STF118804 (Tocris Bioscience), STF31 (Tocris Bioscience), 5-azacytidine (Selleckchem), and Decitabine (Selleckchem) were dissolved in DMSO and used for treatment as indicated.
as §1

[2] = test system: PPM1D (γH2AX foci in parental and PPM1Dtrnc. astrocytes); assay: γH2AX foci formation after ionizing radiation; assay type: cell-based, human; conditions: 10 Gy IR; 50 nM inhibitor 24 hours prior to IR
Method: Astrocyte cell lines were seeded and incubated overnight, before radiation. Plates were then collected at indicated time points, fixed, permeabilized/blocked, and stained with primary and secondary antibodies for fluorescent imaging. […] Cells were subsequently washed in 1×PBS, followed by a joint permeabilization and blocking step in incubation buffer (5% BSA and 0.5% TritonX100, in PBS) for 1 hour. Primary antibody raised against γH2AX […] (Millipore 05-636) was added at a dilution of 1:1000 in incubation buffer, and incubated overnight at 4° C. Plates were washed, followed by a 1 hour RT incubation with alexafluor-conjugated secondary antibodies (ThermoFisher A21425 or A11029, 1:10,000) and a nuclear dye, […] Hoechst 33342 (Sigma), in secondary buffer (0.5% TritonX100, in PBS). Plates were again washed, and imaged in PBS using the Cytation3 imaging system (BioTek). Images were stitched using Gen5 v2.09 software (BioTek), and both foci and cell numbers were counted using CellProfiler image processing software.

[3] = test system: NAD and NADP levels in WT and PPM1Dtrnc. astrocytes; assay: NAD / NADP quantification in astrocytes; assay type: cell-based, human; conditions: PPM1Dtrnc. astrocytes; exogenous NR (50 μM, 24 hrs)
Method: The NAD metabolome was quantitatively analyzed using LC-MS/MS, using two separations on Hypercarb and 13C metabolite standards. Subsequent NAD level analyses were performed using a NAD/NADH Quantification kit (Sigma), as per the manufacturer's specifications. Me/hME-DIP, Bisulfite Conversion, and Global 5-hmC Detection Genomic DNA was purified using the Wizard Genomic DNA purification kit (Promega), and subsequently immunoprecipitated or bisulfite-converted. […] Immunoprecipitated DNA was extracted with phenol/chloroform and analyzed using quantitative PCR (qPCR), as described below. Bisulfite conversion was performed via EpiMark Bisulfite Conversion kit (NEB). Modified DNA was then amplified using EpiMark Hot Start Taq DNA polymerase (NEB), with primers listed in Table 1, and purified with a PCR purification kit (Qiagen). Methylation was then assessed through Sanger-sequencing of the NAPRT promoter. Global 5-hydroxymethylcytosine levels were assessed via the Global 5-hmC quantification kit (Active Motif), according to manufacturer's protocols. Quantitative PCR (qPCR) mRNA transcripts were purified from cells using a RNAeasy kit (Qiagen) and subsequently reverse transcribed using a High Capacity cDNA reverse transcription kit (Applied Biosystems). PPM1D and NAPRT gene expression levels were assessed through qPCR with TaqMan fluorescent probes (all from Applied Biosystems): PPM1D (4331182), NAPRT (4351372), and Actin (4333762F), according to manufacturer's protocol. Expression level fold change was calculated via ΔΔCt comparison, using Actin as a reference gene. The NAPRT promoter region was quantitated via qPCR using Fast Start Universal SYBR Green Master with ROX (Roche), and primers listed in Table 1. All qPCR reactions were run on a StepOnePlus Real Time PCR system (Applied Biosystems).

[4] = ratio of IC50 in parental astrocytes to IC50 in PPM1Dtrnc. astrocytes, viability

Cc1cc([C@@H](C)Nc2ccccc2C(=O)O)c2nc(N3CCOCC3)cc(=O)n2c1 [AZD6482]
IC50 ratio (Parental/PPM1Dtrnc.) [1, 4]: 1.00

NC(=O)Nc1cc(-c2cccc(F)c2)sc1C(=O)N[C@H]1CCCNC1 [AZD7762]
IC50 ratio (Parental/PPM1Dtrnc.) [1, 4]: 0.77

C[C@@]1(CO)[C@H](O)CC[C@@]2(C)[C@H]1CC[C@H]1C[C@@H]3C[C@@]12CC[C@]3(O)CO [Aphidicolin]
IC50 ratio (Parental/PPM1Dtrnc.) [1, 4]: 1.75

Cn1c(=O)n(-c2ccc(C(C)(C)C#N)cc2)c2c3cc(-c4cnc5ccccc5c4)ccc3ncc21 [BEZ-235]
IC50 ratio (Parental/PPM1Dtrnc.) [1, 4]: 1.01

Cn1ncnc1[C@H]1c2n[nH]c(=O)c3cc(F)cc(c23)N[C@@H]1c1ccc(F)cc1 [BMN673]
IC50 ratio (Parental/PPM1Dtrnc.) [1, 4]: 0.99

Cn1c(CCCC(=O)O)nc2cc(N(CCCl)CCCl)ccc21 [Bendamustine]
IC50 ratio (Parental/PPM1Dtrnc.) [1, 4]: 1.07

O=P1(N(CCCl)CCCl)NCCCO1 (stereo not shown) [Cyclophosphamide]
IC50 ratio (Parental/PPM1Dtrnc.) [1]: 0.90

C[C@@H](CN1CC(=O)NC(=O)C1)N1CC(=O)NC(=O)C1 [Dexrazoxane]
IC50 ratio (Parental/PPM1Dtrnc.) [1, 4]: 1.17

Cn1ncc2c(N3CCOCC3)nc(-c3cccc(O)c3)nc21 [ETP 45658]
IC50 ratio (Parental/PPM1Dtrnc.) [1, 4]: 1.51

O=C(O)c1ccc(CN2CCC(CN[C@@H]3C[C@H]3c3ccccc3)CC2)cc1 [G5K2879552]
IC50 ratio (Parental/PPM1Dtrnc.) [1, 4]: 1.00

O=C(CCCCCCCn1cc(-c2cccnc2)nn1)Nc1ccccc1-c1ccccc1 [GPP78]
NAMPT inhibitor sensitivity of PPM1D mutant astrocytes (PPM1Dtrnc. astrocytes): confirmed

Cc1ncc(Cl)cc1NCc1ccc(C(=O)N[C@@H](CC2CCCC2)C(=O)NC2CC2)s1 [GSK2830371]
Differences in γH2AX foci between parental and PPM1Dtrnc. astrocytes after IR [2]: abolished

CCc1c2c(nc3ccc(OC(=O)N4CCC(N5CCCCC5)CC4)cc13)-c1cc3c(c(=O)n1C2)COC(=O)[C@]3(O)CC [Irinotecan]
IC50 ratio (Parental/PPM1Dtrnc.) [1, 4]: 1.01

CCN1CCN(CC(=O)Nc2ccc(-c3cccc4c(=O)cc(N5CCOCC5)oc34)c3sc4ccccc4c23)CC1 [KU 0060648]
IC50 ratio (Parental/PPM1Dtrnc.) [1, 4]: 0.69

O=c1cc(-c2cccc3c2Sc2ccccc2S3)oc(N2CCOCC2)c1 [KU-55933]
IC50 ratio (Parental/PPM1Dtrnc.) [1, 4]: 1.18

CC(N[C@H]1C[C@@H]1c1ccccc1)c1ccc2c(c1)OCCO2 (stereo partly shown) [LSD1-C76]
IC50 ratio (Parental/PPM1Dtrnc.) [1, 4]: 0.98

O=NN(CCCl)C(=O)NC1CCCCC1 [Lomustine]
IC50 ratio (Parental/PPM1Dtrnc.) [1, 4]: 1.10

C=CCn1c(=O)c2cnc(Nc3ccc(N4CCN(C)CC4)cc3)nc2n1-c1cccc(C(C)(C)O)n1 [MK-1775]
IC50 ratio (Parental/PPM1Dtrnc.) [1, 4]: 0.63

CN(C)CCCNC(=O)c1ccc(-c2cc(O)c3ncccc3c2)cc1 [MLM324]
IC50 ratio (Parental/PPM1Dtrnc.) [1, 4]: 1.02

NS(=O)(=O)OC[C@@H]1C[C@@H](n2ccc3c(N[C@H]4CCc5ccccc54)ncnc32)C[C@@H]1O [MLN4924]
IC50 ratio (Parental/PPM1Dtrnc.) [1, 4]: 0.92

CO[C@@]12[C@H](COC(N)=O)C3=C(C(=O)C(C)=C(N)C3=O)N1C[C@@H]1N[C@@H]12 [MMC]
IC50 ratio (Parental/PPM1Dtrnc.) [1, 4]: 1.08

COS(C)(=O)=O [MMS]
IC50 ratio (Parental/PPM1Dtrnc.) [1, 4]: 1.28

NC(=O)c1cccnc1 [NAM, nicotinamide]
Effect on the cytotoxicity of FK866 (PPM1Dtrnc. astrocytes; PPM1Dtrnc. cells, 72 hr concurrent treatment with FK866): strongly antagonized

NC(=O)c1ccc[n+]([C@@H]2O[C@H](CO)[C@@H](O)[C@H]2O)c1 [NR, nicotinamide riboside]
Effect on the cytotoxicity of FK866 (PPM1Dtrnc. astrocytes): completely mitigated
Basal NAD levels [3]: sufficiently increased

O=c1cc(N2CCOCC2)oc2c(-c3cccc4c3sc3ccccc34)cccc12 [NU-7441]
IC50 ratio (Parental/PPM1Dtrnc.) [1, 4]: 1.26

O=C(c1cc(Cc2n[nH]c(=O)c3ccccc23)ccc1F)N1CCN(C(=O)C2CC2)CC1 [Olaparib]
IC50 ratio (Parental/PPM1Dtrnc.) [1, 4]: 1.32

Cc1ccc([N+](=O)[O-])cc1S(=O)(=O)N(C)/N=C/c1cnc2ccc(Br)cn12 [PIK 75]
IC50 ratio (Parental/PPM1Dtrnc.) [1, 4]: 0.97

OCc1ccc(-c2ccc(-c3ccc(CO)s3)o2)s1 [RITA]
IC50 ratio (Parental/PPM1Dtrnc.) [1, 4]: 1.27

C/C(=N\NC(=O)c1cccc(S(=O)(=O)N2CCOCC2)c1)c1cc(Cl)ccc1O [SP2509]
IC50 ratio (Parental/PPM1Dtrnc.) [1, 4]: 1.36

CC(C)(C)c1ccc(S(=O)(=O)NCc2ccc(C(=O)Nc3cccnc3)cc2)cc1 [STF31]
NAMPT inhibitor sensitivity of PPM1D mutant astrocytes (PPM1Dtrnc. astrocytes): confirmed

Cc1ccc(S(=O)(=O)Cc2nc(-c3ccc(C(=O)NCc4cccnc4)cc3)oc2C)cc1 [STF118804]
NAMPT inhibitor sensitivity of PPM1D mutant astrocytes (PPM1Dtrnc. astrocytes): confirmed

CCN1CCN(C(=O)Cc2ccc(Nc3ncc(F)c(Nc4ccc(C(=O)Nc5ccccc5Cl)cc4)n3)cc2)CC1 [TC-S 7010]
IC50 ratio (Parental/PPM1Dtrnc.) [1, 4]: 0.78

CNc1cc(-c2cccc(Cl)c2Cl)nc(N)n1 [TH287]
IC50 ratio (Parental/PPM1Dtrnc.) [1, 4]: 1.52

Cn1nnc2c(C(N)=O)ncn2c1=O [TMZ]
IC50 ratio (Parental/PPM1Dtrnc.) [1, 4]: 1.37

CC[C@@]1(O)C(=O)OCc2c1cc1n(c2=O)Cc2cc3c(CN(C)C)c(O)ccc3nc2-1 [Topotecan]
IC50 ratio (Parental/PPM1Dtrnc.) [1, 4]: 0.99

CNCc1ccc(-c2cc(-c3nc(-c4ccc(S(=O)(=O)C(C)C)cc4)cnc3N)on2)cc1 [VE822]
IC50 ratio (Parental/PPM1Dtrnc.) [1, 4]: 0.93
